In patent publication US10023557B2 (LifeSci Pharmaceuticals, Inc., priority 2015, dated 2018):

Target: human plasma kallikrein (Homo sapiens (Human), UniProt P03952)
Assay: In vitro enzyme inhibition of human plasma kallikrein (PFR-AMC cleavage)
Assay type: biochemical
Settings: Pro-Phe-Arg-AMC substrate, 37° C., read-out: hPK IC50
Method: The ability of the compounds disclosed herein to inhibit human plasma kallikrein activity was quantified according to the procedures below.
A 10 mM solution of the test compound was made in DMSO. […] A control tube containing only DMSO is included. 16 μL of each compound test solution was combined with 384 μL of assay buffer (50 mM Tris-HCl pH 7.5, 150 mM NaCl, 0.01% Triton X-100) to yield a “4× test compound buffer stock”.
These solutions are hereby referred to as 4× hPK and 2×PFR-AMC, respectively.
50 μL was removed from this mixture and placed into duplicate wells on a Microfluor 1Black U-bottom microtiter plate (Thermo Scientific). This plate was incubated for 5 minutes at 37° C. To each well, 50 μL of pre-warmed 2×PFR-AMC was added to start the enzymatic reaction. Cleavage of PFR-AMC was monitored in a Biotek Synergy H4 reader set at 37° C. Readings are taken every 43 seconds for 1 hour. […] The IC50 is calculated using the Gen5 (Biotek Instruments).
The ability of the compounds in Table 3 to inhibit human plasma kallikrein activity was determined.

human plasma kallikrein, sequence (P03952 391-638): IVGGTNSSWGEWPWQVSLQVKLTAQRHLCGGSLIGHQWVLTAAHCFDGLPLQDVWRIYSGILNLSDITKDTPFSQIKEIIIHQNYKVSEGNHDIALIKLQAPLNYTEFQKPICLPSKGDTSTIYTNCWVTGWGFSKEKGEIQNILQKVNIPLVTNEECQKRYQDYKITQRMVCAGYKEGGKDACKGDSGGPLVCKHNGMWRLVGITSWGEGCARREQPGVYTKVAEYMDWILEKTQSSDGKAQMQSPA
human plasma kallikrein, sequence (P03952 20-390 partner): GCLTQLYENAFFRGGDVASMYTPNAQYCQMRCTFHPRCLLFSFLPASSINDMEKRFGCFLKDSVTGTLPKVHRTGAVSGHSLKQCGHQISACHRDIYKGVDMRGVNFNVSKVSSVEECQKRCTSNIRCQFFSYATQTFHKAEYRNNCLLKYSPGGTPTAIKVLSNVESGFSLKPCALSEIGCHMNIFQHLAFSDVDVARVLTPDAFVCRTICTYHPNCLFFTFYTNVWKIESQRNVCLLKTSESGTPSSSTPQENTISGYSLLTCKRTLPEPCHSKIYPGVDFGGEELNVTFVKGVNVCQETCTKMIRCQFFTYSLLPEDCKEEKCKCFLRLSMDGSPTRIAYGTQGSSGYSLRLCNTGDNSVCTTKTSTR

Row | Compound | IC50
1 | O=C(NCc1cc2c(Cl)c[nH]c2cc1F)c1ccnc(Cc2ccc3ncc(N4CCCC4)cc3c2)c1 [Example 307, N-((3-chloro-6-fluoro-1H-indol-5-yl)methyl)-2-((3-(pyrrolidin-1-yl)quinolin-6-yl)methyl)isonicotinamide] | 100 to 1000 nM
2 | Cc1nc(N)cc(C#N)c1CNC(=O)c1ccnc(Cc2ccc3ncc(Cl)cc3c2)c1 [Example 167, N-((6-amino-4-cyano-2-methylpyridin-3-yl)methyl)-2-((3-chloroquinolin-6-yl)methyl)isonicotinamide] | > 10000 nM
3 | O=C(NCc1cnc2ncc(Cl)cn12)c1ccnc(Cc2ccc3ncc(Cl)cc3c2)c1 [Example 256, N-((6-chloroimidazo[1,2-a]pyrimidin-3-yl)methyl)-2-((3-chloroquinolin-6-yl)methyl)isonicotinamide] | > 10000 nM
4 | O=C(NCc1cnc2ccc(Cl)cn12)c1ccnc(Cc2ccc3ncc(Cl)cc3c2)c1 [Example 157, N-((6-chloroimidazo[1,2-a]pyridin-3-yl)methyl)-2-((3-chloroquinolin-6-yl)methyl)isonicotinamide] | > 10000 nM
5 | COCCNc1ccc(CNC(=O)c2ccnc(Cc3ccc4ncc(Cl)cc4c3)c2)c(C)n1 [Example 242, 2-((3-chloroquinolin-6-yl)methyl)-N-((6-((2-methoxyethyl)amino)-2-methylpyridin-3-yl)methyl)isonicotinamide] | 100 to 1000 nM
6 | Cc1nc(N)cc(C(F)(F)F)c1CNC(=O)c1ccnc(Cc2ccc3ncc(Cl)cc3c2)c1 [Example 165, N-((6-amino-2-methyl-4-(trifluoromethyl)pyridin-3-yl)methyl)-2-((3-chloroquinolin-6-yl)methyl)isonicotinamide] | 100 to 1000 nM
7 | O=C(NCc1cc2cc[nH]c2cc1F)c1ccnc(Cc2ccc3ncc(Cl)cc3c2)c1 [Example 259, 2-((3-chloroquinolin-6-yl)methyl)-N-((6-fluoro-1H-indol-5-yl)methyl)isonicotinamide] | 100 to 1000 nM
8 | Cc1nc(N)ccc1CNC(=O)c1ccnc(Cc2ccc3ncc(C(C)O)cc3c2)c1 (stereo not shown) [Example 263, N-((6-amino-2-methylpyridin-3-yl)methyl)-2-((3-(1-hydroxyethyl)quinolin-6-yl)methyl)isonicotinamide] | 100 to 1000 nM
9 | Cc1n[nH]c2ncc(CNC(=O)c3ccnc(Cc4ccc5ncc(Cl)cc5c4)c3)cc12 [Example 266, 2-((3-chloroquinolin-6-yl)methyl)-N-((3-methyl-1H-pyrazolo[3,4-b]pyridin-5-yl)methyl)isonicotinamide] | 1000 to 10000 nM
10 | O=C(NCc1ccc2[nH]nc(C(F)(F)F)c2c1)c1ccnc(Cc2ccc3ncc(Cl)cc3c2)c1 [Example 267, 2-((3-chloroquinolin-6-yl)methyl)-N-((3-(trifluoromethyl)-1H-indazol-5-yl)methyl)isonicotinamide] | 1000 to 10000 nM
11 | Nc1cnc2ccc(Cc3cc(C(=O)NCc4ccc5[nH]cc(Cl)c5c4F)ccn3)cc2c1 [Example 301, 2-((3-aminoquinolin-6-yl)methyl)-N-((3-chloro-4-fluoro-1H-indol-5-yl)methyl)isonicotinamide] | 100 to 1000 nM

Continued, values first:

Row | IC50 | Compound
12 | 100 to 1000 nM | Cc1nc2c(cc1CNC(=O)c1ccnc(Cc3ccc4ncc(Cl)cc4c3)c1)CCN2 [Example 161, 2-((3-chloroquinolin-6-yl)methyl)-N-((6-methyl-2,3-dihydro-1H-pyrrolo[2,3-b]pyridin-5-yl)methyl)isonicotinamide]
13 | 100 to 1000 nM | Cc1cc(N)nc(C)c1CNC(=O)c1ccnc(Cn2cc3cc(Cl)cnc3n2)c1 [Example 203, N-((6-amino-2,4-dimethylpyridin-3-yl)methyl)-2-((5-chloro-2H-pyrazolo[3,4-b]pyridin-2-yl)methyl)isonicotinamide]
14 | < 100 nM | Cc1cnc2c(C(C)(C)O)cc(Cc3cc(C(=O)NCc4c(C)cc(N)nc4C)ccn3)cc2c1 [Example 318, N-((6-amino-2,4-dimethylpyridin-3-yl)methyl)-2-((8-(2-hydroxypropan-2-yl)-3-methylquinolin-6-yl)methyl)isonicotinamide]
15 | 100 to 1000 nM | O=C(NCc1cnc2[nH]nc(C(F)(F)F)c2c1)c1ccnc(Cc2ccc3ncc(Cl)cc3c2)c1 [Example 271, 2-((3-chloroquinolin-6-yl)methyl)-N-((3-(trifluoromethyl)-1H-pyrazolo[3,4-b]pyridin-5-yl)methyl)isonicotinamide]
16 | 100 to 1000 nM | Cc1nc(N)ccc1CNC(=O)c1cc(Cc2cnc3ncc(Cl)cc3c2)ncc1C#N [Example 216, N-((6-amino-2-methylpyridin-3-yl)methyl)-2-((6-chloro-1,8-naphthyridin-3-yl)methyl)-5-cyanoisonicotinamide]
17 | < 100 nM | Cc1cc(N)nc(C)c1CNC(=O)c1ccnc(Cc2cc3cc(Cl)ccc3[nH]2)c1 [Example 147, N-((6-amino-2,4-dimethylpyridin-3-yl)methyl)-2-((5-chloro-1H-indol-2-yl)methyl)isonicotinamide]
18 | < 100 nM | Cc1cc(N)nc(C)c1CNC(=O)c1cc(C#N)nc(Cc2ccc3ncc(Cl)cc3c2)c1 [Example 207, N-((6-amino-2,4-dimethylpyridin-3-yl)methyl)-2-((3-chloroquinolin-6-yl)methyl)-6-cyanoisonicotinamide]
19 | < 100 nM | Cc1nc2[nH]cc(Cl)c2cc1CNC(=O)c1ccnc(Cc2ccc3ncc(Cl)cc3c2)c1 [Example 191, N-((3-chloro-6-methyl-1H-pyrrolo[2,3-b]pyridin-5-yl)methyl)-2-((3-chloroquinolin-6-yl)methyl)isonicotinamide]
20 | < 100 nM | CCc1cnc2ccc(Cc3cc(C(=O)NCc4cc5c(Cl)c[nH]c5cc4F)ccn3)cc2c1 [Example 280, N-((3-chloro-6-fluoro-1H-indol-5-yl)methyl)-2-((3-ethylquinolin-6-yl)methyl)isonicotinamide]
21 | 100 to 1000 nM | Cc1c(CNC(=O)c2ccnc(Cc3ccc4ncc(Cl)cc4c3)c2)cnc2[nH]cc(Cl)c12 [Example 189, N-((3-chloro-4-methyl-1H-pyrrolo[2,3-b]pyridin-5-yl)methyl)-2-((3-chloroquinolin-6-yl)methyl)isonicotinamide]
22 | < 100 nM | CCc1cnc2ccc(Cc3cc(C(=O)NCc4cnc5[nH]cc(Cl)c5c4)ccn3)cc2c1 [Example 281, N-((3-chloro-1H-pyrrolo[2,3-b]pyridin-5-yl)methyl)-2-((3-ethylquinolin-6-yl)methyl)isonicotinamide]
23 | 100 to 1000 nM | Cc1cc(N)nc(C)c1CNC(=O)c1ccnc(Cc2cc3cc(C(F)(F)F)ccc3[nH]2)c1 [Example 151, N-((6-amino-2,4-dimethylpyridin-3-yl)methyl)-2-((5-(trifluoromethyl)-1H-indol-2-yl)methyl)isonicotinamide]
24 | < 100 nM | Cc1cc(N)nc(C)c1CNC(=O)c1ccnc(Cc2ccc3ncc(CO)cc3c2)c1 [Example 257, N-((6-amino-2,4-dimethylpyridin-3-yl)methyl)-2-((3-(hydroxymethyl)quinolin-6-yl)methyl)isonicotinamide]
25 | < 100 nM | Cc1cc(N)nc(C)c1CNC(=O)c1ccnc(Cc2ccc3ncc(C(C)O)cc3c2)c1 (stereo not shown) [Example 262, N-((6-amino-2,4-dimethylpyridin-3-yl)methyl)-2-((3-(1-hydroxyethyl)quinolin-6-yl)methyl)isonicotinamide]
